Reference: patent US12594421B2, “Compositions and methods for increasing cancer cell sensitivity to alternating electric fields” (NOVOCURE GMBH, priority 2020, dated 2026)

How the values were obtained:
A2780 cells [1] = type: cell-based; conditions: for inhibition concentration 25 (IC25): concentration added for 72 h, cell line not stated in b192 (8 nM is the A2780 concentration of b155)
Procedure: (§1) All cell lines were obtained from ATCC: U-87 (human glioma cell lines) and H1299 (human metastatic lung carcinoma), A2780 (ovarian cell line). Cells were cultured in Dulbecco's modified Eagle's medium (Biological Industries) or RPMI (GIBCO) medium supplemented with 5-10% fetal bovine serum and antibiotics.
5,000-50,000 single cells were suspended in 500 μL of media and seeded in the middle of a 22 mm diameter cover slip.
(§2) For induction of 24 hours or longer TTFields application the cover slips were placed in a ceramic dish of Inovitro™ system and allowed to incubate in a conventional tissue culture incubator (37° C., 95% air, 5% CO2) overnight. Once cells adhered to the cover slip, an additional 1.5 mL of media were added to each well and covered in Parafilm (P7793, Sigma Aldrich) to avoid evaporation of media. After an overnight incubation dishes were mounted onto Inovitro™ base plates (Novocure Inc., Haifa, Israel). Tumor Treating electric fields set anywhere from 1-6 V/cm were applied through an Inovitro™ power generator while frequencies ranged from 50-500 kHz. Incubation temperature was 18° C. with a target temperature of 37° C. for the ceramic dishes upon application of the TTFields. Corresponding control experiments were done by placing equivalent cover slips within ceramic dishes into a conventional tissue culture incubator (37° C., 5% CO2) and cells grown in parallel with the TTField-exposed coverslips.
(§3) BGT226, Alpalisib, Pictilisib, BKM120 and Dasatinib were added was added to cells 12-24 hours after seeding for inhibitor mono-treatment and combination treatment to a final concentration of 8 nM, 1 nm, 1 nm, 500 nm and 75 nm respectively in A2780 cells. Control and TTFields samples received same volume of DMSO. Following 72 hours of treatment media was replaced for media with no inhibitor and cells were grown for additional 96 hours. At 168 hours (7 days) cytotoxic assay was performed by GentelMACS cell count, Apoptosis assay and cells were seeded for colony assay (as specified in cell count and Quantification of cell death).
(§4) Cells were detached from Inovitro™ dishes with 0.5 ml Trypsin A for approximately 5 minutes and then supplemented with 0.5 ml culture media. 200 μl of cells were taken to 96 well U-shaped plate to be counted in MACSQuant 10 flow cytometer. Analysis was performed with FlowJo_V10 software and statistics was done by GraphPad Prism 8 software.

cancer cells [2] = test: Apoptosis, TTFields plus GSK3β inhibitor 9-ING-41 (FIG. 19); type: cell-based; conditions: cell line and concentration not stated
Procedure: (§5) Cell death was assessed by double staining of cells with FITC-conjugated annexin V (MEBCYTO© 4700 Apoptosis Kit; MBL©) and 7-Aminoactinomycin D (7-AAD; BioLegend©) as per manufacturer's instructions.

cancer cells [3] = test: Cell cytotoxicity, TTFields plus GSK3β inhibitor 9-ING-41 (FIG. 19); type: cell-based; conditions: cell line and concentration not stated
Procedure: as §4

H1299 cells = test: Cytotoxicity by cell count, TTFields plus Dasatinib; type: cell-based, human; conditions: H1299, TTFields 150 kHz, Dasatinib 0.03 μM (IC25) 72 h, then TTFields alone 96 h
Procedure: as §1
as §2, with “Corresponding control experiments were done by placing equivalent cover slips within ceramic dishes into a conventional tissue culture incubator (37° C., 5% CO2) and cells grown in parallel with the TTField-exposed coverslips.” left out
Cells were detached from Inovitro™ dishes with 0.5 ml Trypsin A for approximately 5 minutes and then supplemented with 0.5 ml culture media. 200 μl of cells were taken to 96 well U-shaped plate to be counted in MACSQuant 10 flow cytometer. […]

A2780 cells [4] = test: Apoptosis assay (annexin V / 7-AAD), TTFields plus inhibitor; type: cell-based, human; conditions: FIG. 6E
Procedure: as §3, §5

A2780 cells [5] = test: Colony assay (clonogenicity), TTFields plus inhibitor; type: cell-based, human; conditions: FIG. 18; BGT226 8 nM 72 h, then TTFields alone 96 h
Procedure: as §3
Colony assay: following cell count 300 cells of each treatment were seeded in duplicates in 6 well dishes with 2 ml media. Once colonies were visible they were washed with PBS. Cells were fixed in −20° C. methanol and stained with 0.5% Crystal violet. Colonies were imaged in camera and counted using Image J (FIJI).

[6] = tested on: Akt phosphorylation in Ser473; test: Western blot of Akt phosphorylation (pAkt Ser473) after TTFields with BGT226; type: cell-based, human
Procedure: Following TTFields application cells were transferred to cold PBS plates for wash.
RIPA lysis buffer (R0278, Sigma-Aldrich), supplemented with a cocktail of protease (Complete Mini, Roche), and phosphatase inhibitors (Halt #78420, Thermo Scientific) was added to plates and cells were scraped with approximately 100 μl supplemented RIPA buffer for 8 Inovitro™ dishes.
Extracts were shaken at 4° C. for a duration of 30 minutes. Samples were centrifuged (20 min, 14,000 rpm, 4° C.). supernatant was transferred and protein concentration was determined by BCA protein assay kit. […]
After electrophoresis, proteins were transferred to 0.2 μm polyvinylidene difluoride membrane (Immuno-Blot PVDF #162-0177, Bio-Rad) and probed with the appropriate primary antibody: GAPDH (SC-32233, Santa Cruz), Vinculin (ab140007, Abcam), Cyclin D1 (2922, Cell Signaling), Rb (9309, Cell Signaling), pRb S807/811 (8516, Cell Signaling), pAkt 5473, (4051, Cell signaling), Akt (2920, Cell signaling)), FAK (3283S, Cell signaling), Phospho-FAK (Tyr397) (3283S, Cell signaling, Src (2109S, cell signaling) and Phospho-Src (Tyr416) (2101S, Cell signaling). followed by horseradish peroxidase-conjugated secondary antibody (goat anti rabbit 7074, Cell Signaling and goat anti mouse 7076, Cell Signaling) and a chemiluminescent substrate (WBLUF0100, Signa-Aldrich). Quantification of bands was done by Image J software. […]

## CC(=O)O[C@H]1C(=O)[C@@]2(C)[C@H]([C@H](OC(=O)c3ccccc3)[C@]3(O)C[C@H](OC(=O)[C@H](O)[C@@H](NC(=O)c4ccccc4)c4ccccc4)C(C)=C1C3(C)C)[C@]1(OC(C)=O)CO[C@@H]1C[C@@H]2O [Paclitaxel]
A2780 cells [1]; FIG. 18, Paclitaxel 2 nM 72 h, then TTFields alone 96 h
  cytotoxicity of combination with TTFields: effective to a lesser extent than that of BGT226
A2780 cells [1]; FIG. 18
  inhibition concentration 25 (IC25): 2 nM

## Cn1cc(C2=C(c3coc4ccc(F)cc34)C(=O)NC2=O)c2cc3c(cc21)OCO3 [9-ING-41]
Cancer cells [2]
  efficacy of TTFields treatment in apoptosis, combination therapy: did not increase efficacy of TTFields treatment
Cancer cells [3]
  efficacy of TTFields treatment in cell cytotoxicity, combination therapy: did not increase efficacy of TTFields treatment

## Cc1nc(Nc2ncc(C(=O)Nc3c(C)cccc3Cl)s2)cc(N2CCN(CCO)CC2)n1 [Dasatinib]
A2780 cells [1]; A2780, TTFields 200 kHz, Dasatinib 0.075 μM (IC25) 72 h, then TTFields alone 96 h
  treatment efficacy of TTFields plus Dasatinib, cytotoxic effect: increased treatment efficacy relative to TTFields or inhibitor alone in all combination groups
H1299 cells
  treatment efficacy of TTFields plus Dasatinib, cytotoxic effect: increased treatment efficacy relative to TTFields or inhibitor alone in all combination groups

## COc1ccc(-c2ccc3ncc4c(c3c2)n(-c2ccc(N3CCNCC3)c(C(F)(F)F)c2)c(=O)n4C)cn1 [BGT226]
A2780 cells [4]
  live cells (AnnexinV-/7AAD-), inhibitor alone compared to combined treatment: more live cells
A2780 cells [4]; cell line not stated
  apoptotic assay, combined treatment of TTFields and inhibitor: induce apoptosis in reminder of cells
A2780 cells [1]; FIG. 6A-6E, cell line not stated
  cell resistance caused by pro-survival signaling by TTFields: inhibited by BGT226
A2780 cells [1]; FIG. 6C, cell line not stated
  cell survival, combination of TTFields with BGT226: synergistic effect in cell survival
A2780 cells [1]; FIG. 18, BGT226 8 nM or Paclitaxel 2 nM 72 h, then TTFields alone 96 h
  efficacy of combination with TTFields, BGT226 compared with Paclitaxel: more effective than Paclitaxel and TTFields
A2780 cells [1]; FIG. 18
  inhibition concentration 25 (IC25): 8 nM
A2780 cells [5]
  clonogenicity, combination therapy with TTFields: dramatic effect in combination therapy with BGT226 compared to Paclitaxel
[6]; A2780 cells, BGT226 5 nM for 72 h, then media without inhibitor 96 h, lysate at 168 hours
  phosphorylation of Akt in Ser473 following combined treatment of TTFields and BGT226: decrease in phosphorylation of Akt in Ser473
[6]; Western blot, FIG. 5A-5B
  increase in Akt phosphorylation following TTFields: inhibited by BGT226
